The text below walks through data of US9714252B2, “Cyclic sulfonamides as sodium channel blockers” (priority 2012, dated 2017).

This assay deals with human Nav1.7 (Homo sapiens (Human), UniProt Q15858). The assay can be described thus: FLIPR sodium dye assay (CoroNa Green) with KCl and test article pre-incubation, recombinant Nav1.7/HEK293 cells. Format: cell-based.
The mark [1] stands for this setting: recombinant human Nav1.7 in HEK293, veratridine + scorpion venom stimulation.

Read-outs that look alike come from different tables or passages of the source.

Sequence of human Nav1.7 (Q15858 with tags, fused parts or gaps limits assumed): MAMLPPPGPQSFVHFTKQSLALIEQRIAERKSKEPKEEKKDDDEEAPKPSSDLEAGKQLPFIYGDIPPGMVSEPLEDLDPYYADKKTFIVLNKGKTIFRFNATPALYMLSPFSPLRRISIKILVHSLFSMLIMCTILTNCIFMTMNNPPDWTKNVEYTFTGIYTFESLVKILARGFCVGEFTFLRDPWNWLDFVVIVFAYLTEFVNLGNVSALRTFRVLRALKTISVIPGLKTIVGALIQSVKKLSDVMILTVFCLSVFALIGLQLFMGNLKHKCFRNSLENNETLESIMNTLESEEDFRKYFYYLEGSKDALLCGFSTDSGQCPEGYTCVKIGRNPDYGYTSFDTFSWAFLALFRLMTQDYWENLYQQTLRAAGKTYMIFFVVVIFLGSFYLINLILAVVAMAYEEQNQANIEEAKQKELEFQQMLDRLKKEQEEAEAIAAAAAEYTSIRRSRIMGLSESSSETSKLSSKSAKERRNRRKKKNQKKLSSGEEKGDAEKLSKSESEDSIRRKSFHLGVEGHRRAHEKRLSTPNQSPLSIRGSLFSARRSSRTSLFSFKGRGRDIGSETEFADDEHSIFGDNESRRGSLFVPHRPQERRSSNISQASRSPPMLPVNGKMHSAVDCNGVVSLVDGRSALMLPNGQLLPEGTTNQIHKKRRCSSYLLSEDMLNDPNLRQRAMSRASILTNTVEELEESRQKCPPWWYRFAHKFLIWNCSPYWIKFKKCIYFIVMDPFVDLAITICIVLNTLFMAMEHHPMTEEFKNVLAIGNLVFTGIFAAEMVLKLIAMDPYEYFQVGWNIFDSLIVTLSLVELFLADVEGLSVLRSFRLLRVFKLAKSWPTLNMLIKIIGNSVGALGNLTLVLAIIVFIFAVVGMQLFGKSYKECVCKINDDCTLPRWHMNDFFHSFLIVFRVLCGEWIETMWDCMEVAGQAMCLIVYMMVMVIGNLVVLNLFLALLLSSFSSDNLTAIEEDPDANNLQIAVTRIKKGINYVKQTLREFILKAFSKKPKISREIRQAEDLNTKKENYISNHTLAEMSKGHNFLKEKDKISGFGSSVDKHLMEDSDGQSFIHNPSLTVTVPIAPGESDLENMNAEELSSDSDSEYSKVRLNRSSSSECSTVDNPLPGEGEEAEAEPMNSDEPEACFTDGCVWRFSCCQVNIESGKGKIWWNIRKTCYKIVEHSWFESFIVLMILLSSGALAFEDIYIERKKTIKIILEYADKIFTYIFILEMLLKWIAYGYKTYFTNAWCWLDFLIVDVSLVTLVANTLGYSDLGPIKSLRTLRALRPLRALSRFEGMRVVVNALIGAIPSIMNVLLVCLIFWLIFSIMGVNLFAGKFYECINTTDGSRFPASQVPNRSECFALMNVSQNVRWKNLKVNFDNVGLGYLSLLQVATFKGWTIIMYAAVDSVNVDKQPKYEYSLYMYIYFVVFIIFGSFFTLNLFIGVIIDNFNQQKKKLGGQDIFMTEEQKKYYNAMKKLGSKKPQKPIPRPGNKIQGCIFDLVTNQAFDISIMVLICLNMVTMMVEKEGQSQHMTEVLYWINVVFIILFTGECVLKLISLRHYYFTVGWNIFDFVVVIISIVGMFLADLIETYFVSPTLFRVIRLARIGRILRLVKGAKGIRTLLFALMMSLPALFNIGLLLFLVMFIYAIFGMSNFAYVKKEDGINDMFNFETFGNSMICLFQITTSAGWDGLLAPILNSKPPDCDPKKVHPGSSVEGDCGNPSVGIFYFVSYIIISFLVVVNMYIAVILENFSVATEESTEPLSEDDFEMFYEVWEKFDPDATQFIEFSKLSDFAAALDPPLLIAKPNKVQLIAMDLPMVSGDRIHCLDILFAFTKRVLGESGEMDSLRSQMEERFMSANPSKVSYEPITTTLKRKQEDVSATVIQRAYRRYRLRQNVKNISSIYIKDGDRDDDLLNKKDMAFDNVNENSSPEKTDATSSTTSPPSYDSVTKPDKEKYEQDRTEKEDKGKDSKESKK

The term IC50 denotes the concentration that gives 50% inhibition. For the compound `O=S1(=O)c2ccc(Oc3ccc(C(F)(F)F)cc3-c3ccnnc3)cc2CN1c1nccs1` [Compound 1, 5-(2-(pyridazin-4-yl)-4-(trifluoromethyl)phenoxy)-2-(thiazol-2-yl)-2,3-dihydrobenzo[d]isothiazole 1,1-dioxide], under setting [1], the IC50 was 1740 nM.

As for `Cn1nccc1-c1cc(Cl)ccc1Oc1ccc2c(c1)CN(c1nccs1)S2(=O)=O` [Compound 3, 5-(4-chloro-2-(1-methyl-1H-pyrazol-5-yl)phenoxy)-2-(thiazol-2-yl)-2,3-dihydrobenzo[d]isothiazole 1,1-dioxide], the IC50 under setting [1] came out at 9100 nM. Same read-out and setting: then `O=S1(=O)c2ccc(N3CCC4(CC3)OCc3ccccc34)cc2CN1c1nccs1` [Compound 4, 5-(3H-spiro[isobenzofuran-1,4′-piperidin]-1′-yl)-2-(thiazol-2-yl)-2,3-dihydrobenzo[d]isothiazole 1,1-dioxide], with 1380 nM.

For `O=S1(=O)c2ccc(Oc3ccccc3-c3ccccc3)cc2CN1c1nccs1` [Compound 2, 5-([1,1′-biphenyl]-2-yloxy)-2-(thiazol-2-yl)-2,3-dihydrobenzo[d]isothiazole 1,1-dioxide], under setting [1], the IC50 is above 20000 nM. For `O=S1(=O)c2ccc(-c3ccc(Oc4ccc(C(F)(F)F)cc4)cc3)cc2CCN1c1nccs1` [Compound 7, 2-(thiazol-2-yl)-6-(4-(4-(trifluoromethyl)phenoxy)phenyl)-3,4-dihydro-2H-benzo[e][1,2]thiazine 1,1-dioxide], the IC50 under setting [1] turned out to be 7090 nM. As to `O=S1(=O)c2ccc(N3CCC4(CC3)OCc3ccccc34)cc2CCN1c1nccs1` [Compound 5, 6-(3H-spiro[isobenzofuran-1,4′-piperidin]-1′-yl)-2-(thiazol-2-yl)-3,4-dihydro-2H-benzo[e][1,2]thiazine 1,1-dioxide], the half-maximal inhibitory concentration (IC50) is 766 nM. In the case of `O=S1(=O)c2ccc(Oc3ccccc3-c3ccccc3)cc2CCN1c1nccs1` [Compound 6, 6-([1,1′-biphenyl]-2-yloxy)-2-(thiazol-2-yl)-3,4-dihydro-2H-benzo[e][1,2]thiazine 1,1-dioxide], the 50% inhibitory concentration (IC50) is 1700 nM.
